Species: Rattus norvegicus
Test: DrugMatrix - Regimen: Daily Repeat
Format: toxicity, organism-based, Sprague-Dawley
Design: regimen Daily Repeat, gender Male, age 6-8 weeks
Conditions: in vivo, po, 90 mg/kg, route oral GAVAGE, dose level Low, vehicle 100 % WATER; for ALANINE AMINOTRANSFERASE / ALBUMIN / ALKALINE PHOSPHATASE / ASPARTATE AMINOTRANSFERASE / BLOOD UREA NITROGEN / CARBON DIOXIDE / CHLORIDE / CHOLESTEROL / CREATINE PHOSPHOKINASE / CREATININE / LACTATE DEHYDROGENASE / LIPASE / PHOSPHORUS / POTASSIUM / SODIUM / TOTAL BILIRUBIN / TOTAL PROTEIN / URIC ACID: tissue Plasma
[1] = 120 h, tissue Blood, time 5 day

Compound: CC(NC(C)(C)C)C(=O)c1cccc(Cl)c1 (stereo not drawn) [BUPROPION]
- ABSOLUTE BASOPHIL (72 h, tissue Blood, time 3 day): 0 CELLS/uL
- ABSOLUTE EOSINOPHIL (72 h, tissue Blood, time 3 day): 0 CELLS/uL
- ABSOLUTE LYMPHOCYTE (72 h, tissue Blood, time 3 day): 10359.67 CELLS/uL
- ABSOLUTE MONOCYTE (72 h, tissue Blood, time 3 day): 103.67 CELLS/uL
- ABSOLUTE SEGMENTED NEUTROPHIL (72 h, tissue Blood, time 3 day): 603.33 CELLS/uL
- BASOPHIL (72 h, tissue Blood, time 3 day): 0%
- EOSINOPHIL (72 h, tissue Blood, time 3 day): 0%
- ERYTHROCYTE COUNT (72 h, tissue Blood, time 3 day): 5.5 x10E6/uL
- HEMATOCRIT (72 h, tissue Blood, time 3 day): 35.63%
- HEMOGLOBIN (72 h, tissue Blood, time 3 day): 13.4 G/DL
- LEUKOCYTE COUNT (72 h, tissue Blood, time 3 day): 11.07 x10E3/uL
- LYMPHOCYTE (72 h, tissue Blood, time 3 day): 93.67%
- MEAN CORPUSCULAR HEMOGLOBIN (72 h, tissue Blood, time 3 day): 24.4 pg
- MEAN CORPUSCULAR HEMOGLOBIN CONCENTRATION (72 h, tissue Blood, time 3 day): 37.63 G/DL
- MEAN CORPUSCULAR VOLUME (72 h, tissue Blood, time 3 day): 64.83 fL
- MONOCYTE (72 h, tissue Blood, time 3 day): 1%
- NEUTROPHIL (72 h, tissue Blood, time 3 day): 5.33%
- NUCLEATED RED BLOOD CELLS (72 h, tissue Blood, time 3 day): 0 /100WBC
- PLATELET COUNT (72 h, tissue Blood, time 3 day): 1176 x10E3/uL
- ALANINE AMINOTRANSFERASE (72 h, time 3 day): 40 u/L
- ALBUMIN (72 h, time 3 day): 4.5 G/DL
- ALKALINE PHOSPHATASE (72 h, time 3 day): 417.67 u/L
- ASPARTATE AMINOTRANSFERASE (72 h, time 3 day): 84.67 u/L
- BLOOD UREA NITROGEN (72 h, time 3 day): 16.33 mg/dL
- CARBON DIOXIDE (72 h, time 3 day): 31 mmol/L
- CHLORIDE (72 h, time 3 day): 99.33 MEQ/L
- CHOLESTEROL (72 h, time 3 day): 95 mg/dL
- CREATINE PHOSPHOKINASE (72 h, time 3 day): 325 u/L
- CREATININE (72 h, time 3 day): 0.19 mg/dL
- LACTATE DEHYDROGENASE (72 h, time 3 day): 154.67 u/L
- LIPASE (72 h, time 3 day): 9 u/L
- PHOSPHORUS (72 h, time 3 day): 10.93 mg/dL
- POTASSIUM (72 h, time 3 day): 6.49 MEQ/L
- SODIUM (72 h, time 3 day): 143.13 MEQ/L
- TOTAL BILIRUBIN (72 h, time 3 day): 0.17 mg/dL
- TOTAL PROTEIN (72 h, time 3 day): 6.53 G/DL
- URIC ACID (72 h, time 3 day): 0.73 mg/dL
- ABSOLUTE BASOPHIL [1]: 0 CELLS/uL
- ABSOLUTE EOSINOPHIL [1]: 55.33 CELLS/uL
- ABSOLUTE LYMPHOCYTE [1]: 14977 CELLS/uL
- ABSOLUTE MONOCYTE [1]: 411.67 CELLS/uL
- ABSOLUTE SEGMENTED NEUTROPHIL [1]: 2222.67 CELLS/uL
- BASOPHIL [1]: 0%
- EOSINOPHIL [1]: 0.33%
- ERYTHROCYTE COUNT [1]: 5.73 x10E6/uL
- HEMATOCRIT [1]: 37.5%
- LEUKOCYTE COUNT [1]: 17.67 x10E3/uL
- LYMPHOCYTE [1]: 86.67%
- MEAN CORPUSCULAR HEMOGLOBIN [1]: 24.83 pg
- MEAN CORPUSCULAR HEMOGLOBIN CONCENTRATION [1]: 37.83 G/DL
- MEAN CORPUSCULAR VOLUME [1]: 65.57 fL
- MONOCYTE [1]: 2%
- NEUTROPHIL [1]: 11%
- NUCLEATED RED BLOOD CELLS [1]: 0 /100WBC
- PLATELET COUNT [1]: 1410.67 x10E3/uL
- ALANINE AMINOTRANSFERASE (120 h, time 5 day): 37.67 u/L
- ALBUMIN (120 h, time 5 day): 4.67 G/DL
- ALKALINE PHOSPHATASE (120 h, time 5 day): 328 u/L
- ASPARTATE AMINOTRANSFERASE (120 h, time 5 day): 72 u/L
- BLOOD UREA NITROGEN (120 h, time 5 day): 17.33 mg/dL
- CARBON DIOXIDE (120 h, time 5 day): 32.33 mmol/L
- CHLORIDE (120 h, time 5 day): 100 MEQ/L
- CHOLESTEROL (120 h, time 5 day): 93.67 mg/dL
- CREATINE PHOSPHOKINASE (120 h, time 5 day): 263 u/L
- CREATININE (120 h, time 5 day): 0.21 mg/dL
- LACTATE DEHYDROGENASE (120 h, time 5 day): 145 u/L
- LIPASE (120 h, time 5 day): 9.33 u/L
- PHOSPHORUS (120 h, time 5 day): 12.6 mg/dL
- POTASSIUM (120 h, time 5 day): 8.49 MEQ/L
- SODIUM (120 h, time 5 day): 144.5 MEQ/L
- TOTAL BILIRUBIN (120 h, time 5 day): 0.23 mg/dL
- TOTAL PROTEIN (120 h, time 5 day): 6.77 G/DL
- URIC ACID (120 h, time 5 day): 1.6 mg/dL
